# Key:
# Format in all cases: cell-based
# T47D = test: RNA sequencing after E2 or DMSO treatment, T47D
# Procedure: (§1) To derive a transcriptional signature of ER pathway activity, RNA sequencing was performed on seven breast cancer cell lines following treatment with either DMSO or 1 μM estradiol (E2) for 24 hours. Briefly, RNA libraries for cell lines were made with TRUSEQ® RNA sample preparation kit (ILLUMINA®) according to the manufacturer's protocol. The libraries were sequenced on an ILLUMINA® Hi Seq 2000, using 1-4 lanes per cell line. RNA sequencing (RNA-seq) data were analyzed with HTSeqGenie (R package version 3.14.0) in BioConductor (Huber et al. Nature Methods. 112:115-21, 2015) as follows: reads were trimmed to 75 base pairs (bp), filtered for quality and rRNA/adapter contamination, and aligned to the reference genome GRCh38 using GSNAP (Wu et al. Bioinforma Oxf Engl. 26:873-81, 2010). Gene expression was quantified as Reads per Kilobase of exon model per Million mapped reads normalized by size factor (nRPKM), defined as number of reads aligning to a gene in a sample/(total number of uniquely mapped reads for that sample x gene length x size factor). Genes without gene symbol and genes of uncertain function (LOC and Corf symbols) were excluded.
# EFM19 = test: RNA sequencing after E2 or DMSO treatment, EFM19
# Procedure: as §1
# HCC1500 = test: RNA sequencing after E2 or DMSO treatment, HCC1500
# Procedure: as §1
# BT474 = test: RNA sequencing after E2 or DMSO treatment, BT474
# Procedure: as §1
# [1] = gene NBEA, 1 μM E2 24 hours vs DMSO
# [2] = gene PNPLA7, 1 μM E2 24 hours vs DMSO
# [3] = gene PSCA, 1 μM E2 24 hours vs DMSO
# [4] = gene SEMASE, 1 μM E2 24 hours vs DMSO
# [5] = gene SSPO, 1 μM E2 24 hours vs DMSO
# [6] = gene STON1, 1 μM E2 24 hours vs DMSO
# [7] = gene TGFB3, 1 μM E2 24 hours vs DMSO
# [8] = gene TP53INP1, 1 μM E2 24 hours vs DMSO
# [9] = gene TP53INP2, 1 μM E2 24 hours vs DMSO
# [10] = gene BAMBI, 1 μM E2 24 hours vs DMSO
# [11] = gene BCAS1, 1 μM E2 24 hours vs DMSO
# [12] = gene CCNG2, 1 μM E2 24 hours vs DMSO
# [13] = gene DDEE4, 1 μM E2 24 hours vs DMSO
# [14] = gene EGLN3, 1 μM E2 24 hours vs DMSO
# [15] = gene FAM1718, 1 μM E2 24 hours vs DMSO
# [16] = gene GRM4, 1 μM E2 24 hours vs DMSO
# [17] = gene IL1R1, 1 μM E2 24 hours vs DMSO
# [18] = gene LIPH, 1 μM E2 24 hours vs DMSO
compound,measurement,setting,value
"C[C@]12CC[C@@H]3c4ccc(O)cc4CC[C@H]3[C@@H]1CC[C@@H]2O [Compound E2, estradiol]",Log2 FC E2 vs no E2: NBEA,T47D; [1],−1.368
same,Log2 FC E2 vs no E2: PNPLA7,T47D; [2],−1.211
same,Log2 FC E2 vs no E2: PSCA,T47D; [3],−1.253
same,Log2 FC E2 vs no E2: SEMASE,T47D; [4],−0.741
same,Log2 FC E2 vs no E2: SSPO,T47D; [5],−1.181
same,Log2 FC E2 vs no E2: STON1,T47D; [6],−2.304
same,Log2 FC E2 vs no E2: TGFB3,T47D; [7],−1.263
same,Log2 FC E2 vs no E2: TP53INP1,T47D; [8],−1.363
same,Log2 FC E2 vs no E2: TP53INP2,T47D; [9],−0.959
same,Log2 FC E2 vs no E2: BAMBI,EFM19; [10],−1.554
same,Log2 FC E2 vs no E2: BCAS1,EFM19; [11],−2.189
same,Log2 FC E2 vs no E2: CCNG2,EFM19; [12],−1.442
same,Log2 FC E2 vs no E2: DDEE4,EFM19; [13],−1.101
same,Log2 FC E2 vs no E2: EGLN3,EFM19; [14],−1.008
same,Log2 FC E2 vs no E2: FAM1718,EFM19; [15],−1.910
same,Log2 FC E2 vs no E2: GRM4,EFM19; [16],−1.141
same,Log2 FC E2 vs no E2: IL1R1,EFM19; [17],−2.327
same,Log2 FC E2 vs no E2: LIPH,EFM19; [18],−1.844
same,Log2 FC E2 vs no E2: NBEA,EFM19; [1],−1.105
same,Log2 FC E2 vs no E2: PNPLA7,EFM19; [2],−0.901
same,Log2 FC E2 vs no E2: PSCA,EFM19; [3],−1.593
same,Log2 FC E2 vs no E2: SEMASE,EFM19; [4],−1.100
same,Log2 FC E2 vs no E2: SSPO,EFM19; [5],−0.605
same,Log2 FC E2 vs no E2: STON1,EFM19; [6],−1.500
same,Log2 FC E2 vs no E2: TGFB3,EFM19; [7],−1.350
same,Log2 FC E2 vs no E2: TP53INP1,EFM19; [8],−1.461
same,Log2 FC E2 vs no E2: TP53INP2,EFM19; [9],−1.373
same,Log2 FC E2 vs no E2: BAMBI,HCC1500; [10],−1.438
same,Log2 FC E2 vs no E2: BCAS1,HCC1500; [11],−2.105
same,Log2 FC E2 vs no E2: CCNG2,HCC1500; [12],−1.525
same,Log2 FC E2 vs no E2: DDEE4,HCC1500; [13],−1.865
same,Log2 FC E2 vs no E2: EGLN3,HCC1500; [14],−2.504
same,Log2 FC E2 vs no E2: FAM1718,HCC1500; [15],−0.683
same,Log2 FC E2 vs no E2: GRM4,HCC1500; [16],−1.071
same,Log2 FC E2 vs no E2: IL1R1,HCC1500; [17],−1.943
same,Log2 FC E2 vs no E2: LIPH,HCC1500; [18],−1.384
same,Log2 FC E2 vs no E2: NBEA,HCC1500; [1],−1.190
same,Log2 FC E2 vs no E2: PNPLA7,HCC1500; [2],−1.376
same,Log2 FC E2 vs no E2: PSCA,HCC1500; [3],−1.726
same,Log2 FC E2 vs no E2: SEMASE,HCC1500; [4],−1.058
same,Log2 FC E2 vs no E2: SSPO,HCC1500; [5],−1.304
same,Log2 FC E2 vs no E2: STON1,HCC1500; [6],−1.279
same,Log2 FC E2 vs no E2: TGFB3,HCC1500; [7],−1.214
same,Log2 FC E2 vs no E2: TP53INP1,HCC1500; [8],−1.777
same,Log2 FC E2 vs no E2: TP53INP2,HCC1500; [9],−1.073
same,Log2 FC E2 vs no E2: BAMBI,BT474; [10],−1.153
same,Log2 FC E2 vs no E2: BCAS1,BT474; [11],−1.110
same,Log2 FC E2 vs no E2: CCNG2,BT474; [12],−0.935
same,Log2 FC E2 vs no E2: DDEE4,BT474; [13],−0.862
same,Log2 FC E2 vs no E2: EGLN3,BT474; [14],−0.118
same,Log2 FC E2 vs no E2: FAM1718,BT474; [15],−1.279
same,Log2 FC E2 vs no E2: GRM4,BT474; [16],−1.883
same,Log2 FC E2 vs no E2: IL1R1,BT474; [17],−1.490
same,Log2 FC E2 vs no E2: LIPH,BT474; [18],−0.804
same,Log2 FC E2 vs no E2: NBEA,BT474; [1],−0.346
same,Log2 FC E2 vs no E2: PNPLA7,BT474; [2],−1.427
same,Log2 FC E2 vs no E2: PSCA,BT474; [3],−1.956
same,Log2 FC E2 vs no E2: SEMASE,BT474; [4],−1.101
same,Log2 FC E2 vs no E2: SSPO,BT474; [5],−1.739
same,Log2 FC E2 vs no E2: STON1,BT474; [6],−0.650
same,Log2 FC E2 vs no E2: TGFB3,BT474; [7],−0.304
same,Log2 FC E2 vs no E2: TP53INP1,BT474; [8],−1.496
same,Log2 FC E2 vs no E2: TP53INP2,BT474; [9],−2.069
